From patent publication US20210391038A1, “SPECIFICALLY-SHAPED CRYSTAL OF COMPOUND AND METHOD FOR PRODUCING SAME” (TOWA PHARMACEUTICAL CO., LTD., priority 2018, published 2021)
Where a name gives a salt, the structure may show the parent alone.

Assay: Measurement of critical degree of supersaturation of spherulite
Type: physicochemical
From the text: “Supersaturated solution” in the present description means a solution in a state of containing a solute exceeding the solubility. As the degree of supersaturation, “degree of supersaturation” can be used. Regarding the degree of supersaturation, when the concentration (mass concentration (g/g)) of a compound dissolved in a supersaturated solution is defined as C and the solubility of the compound is defined as Cs, the degree of supersaturation S can be represented by the following formula: […]
“Critical degree of supersaturation” in the present description means the lowest degree of supersaturation required to obtain a specifically-shaped crystal. […] The value of a critical degree of supersaturation varies depending on the shape of a crystal. For example, all of values of a critical degree of supersaturation required to obtain a plate crystal, a critical degree of supersaturation required to obtain a needle crystal, and a critical degree of supersaturation required to obtain a spherulite are different. The critical degree of supersaturation required to obtain a spherulite is higher than the critical degree of supersaturation required to obtain a plate crystal or a needle crystal.
The actual measured value of the critical degree of supersaturation (S*) can be measured as follows:
(1) 100 particles are observed by SEM. (2) 5 to 10 particles whose shape is close to a desired specific shape are selected, and the shape is evaluated. In particular, when the desired specific shape is a sphere, the sphericity is evaluated. (3) Based on the evaluation index of the shape, whether the selected particles have the desired specific shape or not is determined. In particular, when the desired specific shape is a sphere, the case where the sphericity is 0.60 or more is determined as a spherulite. (4) The above-mentioned operation is performed for each sample having a different degree of supersaturation during crystallization, and the minimum value of a degree of supersaturation having the specifically-shaped particles is determined as the critical degree of supersaturation. The difference between the maximum value of a degree of supersaturation not having the specifically-shaped particles and the critical degree of supersaturation should be 20% or less.
The critical degree of supersaturation of a spherulite of ketotifen fumarate was determined as follows. To 2.0 g of ketotifen fumarate, 10 mL (5 v/w) of methanol was added, followed by reflux to completely dissolve. This solution was added dropwise to 50 mL of isopropanol at 20° C. to prepare a supersaturated solution of ketotifen fumarate. The degree of supersaturation of the supersaturated solution at the end of dropwise addition was 9.0. The supersaturated solution was crystallized. The crystal was collected by filtration, followed by drying under reduced pressure at 40° C., thus obtaining a crystal of ketotifen fumarate.
Similarly, when a substrate and a solvent different from those mentioned above are used, a plurality of samples having a different degree of supersaturation are prepared and crystallized, and then the critical degree of supersaturation of the spherulite was measured.

Structure (SMILES): CC[C@H]1OC(=O)[C@H](C)[C@@H](O[C@H]2C[C@@](C)(OC)[C@@H](O)[C@H](C)O2)[C@H](C)[C@@H](O[C@@H]2O[C@H](C)C[C@H](N(C)C)[C@H]2O)[C@](C)(O)C[C@@H](C)CN(C)[C@H](C)[C@@H](O)[C@]1(C)O [Azithromycin monohydrate]
- Critical degree of supersaturation S Experimental value (entry 11, solvent 1 IPA, solvent 2 H2O, solvent 2/solvent 1 ratio 10, crystallization 0 °C): 3.2
- Critical degree of supersaturation S Experimental value (entry 14, solvent 1 IPA, solvent 2 H2O, solvent 2/solvent 1 ratio 20, crystallization 0 °C): 1.6
- Critical degree of supersaturation S Experimental value (entry 15, solvent 1 Acetone, solvent 2 H2O, solvent 2/solvent 1 ratio 10, crystallization 0 °C): 6.2
- Critical degree of supersaturation S Experimental value (entry 16, solvent 1 EtOH, solvent 2 H2O, solvent 2/solvent 1 ratio 20, crystallization 0 °C): 7.1
- Critical degree of supersaturation S Experimental value (entry 17, solvent 1 MeOH, solvent 2 H2O, solvent 2/solvent 1 ratio 20, crystallization 0 °C): 7.5
- Critical degree of supersaturation S Experimental value (entry 18, solvent 1 IPA, solvent 2 H2O, solvent 2/solvent 1 ratio 10, crystallization 20 °C): 11.1

Structure (SMILES): O=C(O)CCCN1CCC(O[C@@H](c2ccc(Cl)cc2)c2ccccn2)CC1.O=S(=O)(O)c1ccccc1 [Bepotastine besilate]
- actual measured value of the critical degree of supersaturation: 36.4
- Critical degree of supersaturation S Experimental value (entry 57, solvent 1 EtOH, solvent 2 AcOiPr, solvent 2/solvent 1 ratio 10, crystallization 0 °C): 36.4

Structure (SMILES): CC[C@H]1OC(=O)[C@H](C)[C@@H](O[C@H]2C[C@@](C)(OC)[C@@H](O)[C@H](C)O2)[C@H](C)[C@@H](O[C@@H]2O[C@H](C)C[C@H](N(C)C)[C@H]2O)[C@](C)(OC)C[C@@H](C)C(=O)[C@H](C)[C@@H](O)[C@]1(C)O [Clarithromycin]
- actual measured value of the critical degree of supersaturation: 17
- Critical degree of supersaturation S Experimental value (entry 8, solvent 1 THF, solvent 2 H2O, solvent 2/solvent 1 ratio 25, crystallization 0 °C): 11
- Critical degree of supersaturation S Experimental value (entry 9, solvent 1 THF, solvent 2 H2O, solvent 2/solvent 1 ratio 70, crystallization 0 °C): 26
- Critical degree of supersaturation S Experimental value (entry 10, solvent 1 THF, solvent 2 H2O, solvent 2/solvent 1 ratio 75, crystallization 10 °C): 17

Structure (SMILES): COC(=O)[C@H](c1ccccc1Cl)N1CCc2sccc2C1 [Clopidogrel sulfate]
- Critical degree of supersaturation S Experimental value (entry 3, solvent 1 H2O, solvent 2 2-BuOH, solvent 2/solvent 1 ratio 222, crystallization 20 °C): 9.7

Structure (SMILES): CCCCCCOC(=O)N=C(N)c1ccc(NCc2nc3cc(C(=O)N(CCC(=O)OCC)c4ccccn4)ccc3n2C)cc1 [Dabigatran etexilate methanesulfonate]
- actual measured value of the critical degree of supersaturation: 4.3
- Critical degree of supersaturation S Experimental value (entry 24, solvent 1 MeOH, solvent 2 TBME, solvent 2/solvent 1 ratio 10, crystallization 20 °C): 3.3
- Critical degree of supersaturation S Experimental value (entry 25, solvent 1 EtOH, solvent 2 EtOAc, solvent 2/solvent 1 ratio 10, crystallization 5 °C): 2.9
- Critical degree of supersaturation S Experimental value (entry 26, solvent 1 EtOH, solvent 2 EtOAe, solvent 2/solvent 1 ratio 10, crystallization 20 °C): 4.3
- Critical degree of supersaturation S Experimental value (entry 27, solvent 1 EtOH, solvent 2 EtOAc, solvent 2/solvent 1 ratio 10, crystallization 35 °C): 5.2

Structure (SMILES): CN(C)CCC[C@@]1(c2ccc(F)cc2)OCc2cc(C#N)ccc21 [Escitalopram oxalate]
- actual measured value of the critical degree of supersaturation: 3.7
- Critical degree of supersaturation S Experimental value (entry 21, solvent 1 H2O, solvent 2 2-BuOH, solvent 2/solvent 1 ratio 30, crystallization 0 °C): 2.8
- Critical degree of supersaturation S Experimental value (entry 22, solvent 1 H2O, solvent 2 2-BuOH, solvent 2/solvent 1 ratio 15, crystallization 0 °C): 3.7
- Critical degree of supersaturation S Experimental value (entry 23, solvent 1 H2O, solvent 2 IPA, solvent 2/solvent 1 ratio 15, crystallization 0 °C): 4

Structure (SMILES): COc1ccc2[n-]c([S+]([O-])Cc3ncc(C)c(OC)c3C)nc2c1.COc1ccc2[n-]c([S+]([O-])Cc3ncc(C)c(OC)c3C)nc2c1.[Mg+2] (stereo not drawn) [Esomeprazolc magnesium hydrate]
- Critical degree of supersaturation S Experimental value (entry 1, solvent 1 MeOH, solvent 2 H2O, solvent 2/solvent 1 ratio 1, crystallization 35 °C): 1.4

Structure (SMILES): N[C@@H](CCC(=O)N[C@@H](CS)C(=O)NCC(=O)O)C(=O)O [Glutathione]
- actual measured value of the critical degree of supersaturation: 18.7
- Critical degree of supersaturation S Experimental value (entry 47, solvent 1 H2O, solvent 2 EtOH, solvent 2/solvent 1 ratio 5, crystallization 20 °C): 18.7

Structure (SMILES): CN1CCC(=C2c3ccccc3CC(=O)c3sccc32)CC1 [Ketotifen fumarate]
- Critical degree of supersaturation S Experimental value (entry 4, solvent 1 MeOH, solvent 2 IPA, solvent 2/solvent 1 ratio 5, crystallization 0 °C): 2.5
- Critical degree of supersaturation S Experimental value (entry 5, solvent 1 MeOH, solvent 2 IPA, solvent 2/solvent 1 ratio 5, crystallization 50 °C): 4
- Critical degree of supersaturation S Experimental value (entry 6, solvent 1 MeOH, solvent 2 2-BuOH, solvent 2/solvent 1 ratio 5, crystallization 0 °C): 1.6
- Critical degree of supersaturation S Experimental value (entry 7, solvent 1 MeOH, solvent 2 2-BuOH, solvent 2/solvent 1 ratio 5, crystallization 20 °C): 4.4
- critical degree of supersaturation of a spherulite (methanol to isopropanol 1:5, temperature during crystallization 20° C.): 4.0

Structure (SMILES): Cc1c(OCC(F)(F)F)ccnc1C[S+]([O-])c1nc2ccccc2[nH]1 (stereo not drawn) [Lansoprazole]
- actual measured value of the critical degree of supersaturation: 10.9
- Critical degree of supersaturation S Experimental value (entry 2, solvent 1 MeOH, solvent 2 H2O, solvent 2/solvent 1 ratio 3, crystallization 0 °C): 6.9
- Critical degree of supersaturation S Experimental value (entry 20, solvent 1 MeOH, solvent 2 H2O, solvent 2/solvent 1 ratio 3, crystallization 15 °C): 12.6

Structure (SMILES): Nc1nc(CC(=O)Nc2ccc(CCNC[C@H](O)c3ccccc3)cc2)cs1 [Mirabegron]
- actual measured value of the critical degree of supersaturation: 5.6
- Critical degree of supersaturation S Experimental value (entry 48, solvent 1 H2O, solvent 2 MeOH, solvent 2/solvent 1 ratio 1.25, crystallization 0 °C): 1.6
- Critical degree of supersaturation S Experimental value (entry 49, solvent 1 H2O, solvent 2 MeOH, solvent 2/solvent 1 ratio 1.25, crystallization 10 °C): 3.2
- Critical degree of supersaturation S Experimental value (entry 50, solvent 1 MeOH, solvent 2 TBME, solvent 2/solvent 1 ratio 10, crystallization 0 °C): 4
- Critical degree of supersaturation S Experimental value (entry 51, solvent 1 MeOH, solvent 2 TBME, solvent 2/solvent 1 ratio 10, crystallization 10 °C): 4.3
- Critical degree of supersaturation S Experimental value (entry 52, solvent 1 EtOH, solvent 2 TBME, solvent 2/solvent 1 ratio 10, crystallization 0 °C): 5.6
- Critical degree of supersaturation S Experimental value (entry 53, solvent 1 EtOH, solvent 2 TBME, solvent 2/solvent 1 ratio 10, crystallization 10 °C): 5.4

Structure (SMILES): CN(C)CC/C=C1/c2ccccc2COc2ccc(CC(=O)O)cc21 [Olopatadine]
- actual measured value of the critical degree of supersaturation: 9.7
- Critical degree of supersaturation S Experimental value (entry 58, solvent 1 MeOH, solvent 2 EtOAc, solvent 2/solvent 1 ratio 20, crystallization 15 °C): 9.7

Structure (SMILES): Cc1cccc(C)c1NC(=O)CC12CCCN1CCC2.Cl [Pilsicainide hydrochloride anhydride]
- actual measured value of the critical degree of supersaturation: 27
- Critical degree of supersaturation S Experimental value (entry 35, solvent 1 IPA, solvent 2 Toluene, solvent 2/solvent 1 ratio 10, crystallization 5 °C): 27

Structure (SMILES): Cc1cc(N2CCN([C@@H]3CN[C@H](C(=O)N4CCSC4)C3)CC2)n(-c2ccccc2)n1 [Teneligliptin hydrobromide hydrate]
- actual measured value of the critical degree of supersaturation: 7.9
- Critical degree of supersaturation S Experimental value (entry 32, solvent 1 MeOH, solvent 2 1-BuOH, solvent 2/solvent 1 ratio 10, crystallization 0 °C): 5.2
- Critical degree of supersaturation S Experimental value (entry 33, solvent 1 MeOH, solvent 2 1-BuOH, solvent 2/solvent 1 ratio 10, crystallization 20 °C): 7.9
- Critical degree of supersaturation S Experimental value (entry 34, solvent 1 MeOH, solvent 2 1-BuOH, solvent 2/solvent 1 ratio 10, crystallization 40 °C): 12.6

Structure (SMILES): Cn1c(=O)c2[nH]cnc2n(C)c1=O.[Mg] [Theophylline magnesium salt]
- actual measured value of the critical degree of supersaturation: 3.5
- Critical degree of supersaturation S Experimental value (entry 28, solvent 1 MeOH, solvent 2 H2O, solvent 2/solvent 1 ratio 3, crystallization 0 °C): 3.5
- Critical degree of supersaturation S Experimental value (entry 29, solvent 1 EtOH, solvent 2 H2O, solvent 2/solvent 1 ratio 3, crystallization 0 °C): 3.9
- Critical degree of supersaturation S Experimental value (entry 30, solvent 1 Acetone, solvent 2 H2O, solvent 2/solvent 1 ratio 3, crystallization 0 °C): 6.3
- Critical degree of supersaturation S Experimental value (entry 31, solvent 1 IPA, solvent 2 H2O, solvent 2/solvent 1 ratio 3, crystallization 0 °C): 6.6

Structure (SMILES): Cc1ccccc1C(=O)Nc1ccc(C(=O)N2CCCC(O)c3cc(Cl)ccc32)c(C)c1 (stereo not drawn) [Tolvaptan]
- actual measured value of the critical degree of supersaturation: 4.8
- Critical degree of supersaturation S Experimental value (entry 54, solvent 1 MeOH, solvent 2 H2O, solvent 2/solvent 1 ratio 0.4, crystallization 0 °C): 4.8
- Critical degree of supersaturation S Experimental value (entry 55, solvent 1 MeOH, solvent 2 H2O, solvent 2/solvent 1 ratio 0.4, crystallization 10 °C): 7.1

Structure (SMILES): COc1cccc(C2(O)CCCCC2CN(C)C)c1 (stereo not drawn) [Tramadol hydrochloride]
- actual measured value of the critical degree of supersaturation: 4.2
- Critical degree of supersaturation S Experimental value (entry 36, solvent 1 MeOH, solvent 2 i-PrOAc, solvent 2/solvent 1 ratio 20, crystallization 10 °C): 4.7
- Critical degree of supersaturation S Experimental value (entry 37, solvent 1 IPA, solvent 2 TBME, solvent 2/solvent 1 ratio 30, crystallization 10 °C): 11.1
- Critical degree of supersaturation S Experimental value (entry 38, solvent 1 EtOH, solvent 2 TBME, solvent 2/solvent 1 ratio 30, crystallization 10 °C): 22.4
